From patent publication US20250195508A1, “COMPOUNDS AND COMPOSITIONS FOR ANITMALARIAL THERAPEUTIC AND PROPHYLACTIC USE” (UNIVERSITY OF CENTRAL FLORIDA RESEARCH FOUNDATION, INC., priority 2022, published 2025)

What follows are compounds tested on P. falciparum Dd2 (assay: 72 h SYBR Green I assay (Dd2 Proliferation Assay)). Conditions: 72 hour SYBR Green I; Table 2; read-out: Dd2 EC50 (nM) ± SD.
Format: cell-based
Experimental: Several analogs were synthesized based on the structure of TL5-135 for further study. […] For the data in Table 1, compounds were subjected to in vitro biochemical kinase assays done using recombinant human ephrin type-A receptor 2 (EPHA2) (expressed in insect cells) in a Z′-LYTE® FRET-based kinase assay. P. falciparum Dd2 EC50 was determined using the standard 72 hour SYBR Green I assay (Dd2 Proliferation Assay) as known in the art. […] The structures of compoundsTL5-134, TL5-139, and TL5-145 are shown below.
In vitro biochemical kinase assays were done using recombinant human EPHA2 (expressed in insect cells) in a Z′-LYTE® FRET-based kinase assay. P. falciparum Dd2 EC50 was determined using the standard 72 h SYBR Green I assay.
Asynchronous blood stage P. falciparum Dd2 cultures were plated at 1% parasitemia and 1% hematocrit in a 96-well plate and incubated with serial dilutions of compound for 72 hours at 37° C. in 5% CO2. DMSO concentrations were kept at a sub-lethal percentage (<0.2%). Five micromolar chloroquine was used as a negative parasite growth control. Plates were then frozen at −80° C. and thawed, and 100 μL SYBR Green I-containing lysis buffer (20 mM Tris-HCl, 5 mM EDTA, 0.8% Triton X-100, 0.08% saponin, and 0.0001% SYBR Green I) was added to the wells. After incubation for 45 minutes at room temperature protected from light, fluorescence emission was read with a multimode microplate reader, at 485 nm excitation and 530 nm emission. Results were normalized using untreated and chloroquine-treated controls, and EC50 was determined with CDD Vault.
To establish the utility of kinase inhibitor compounds synthesized in the Gray laboratory as a source of novel antimalarial activities, the libraries (containing 1,100 compounds) were screened using the well-established SYBR Green I-based fluorescence assay as known in the art. This screen yielded 34 compounds with EC50<500 nM in the CQ^R Dd2 strain. These hits were subjected to counter-screening against human HepG2 cells using CellTiter 96® AQueous (Promega™) MTS-based cell proliferation assay to identify asexual and liver stage antiplasmodial hits.
P. falciparum Dd2 EC50 was determined using SYBR Green I assay. For the selectivity index ([…]) cytotoxicity was determined using CellTiter 96® AQueous MTS. The liver stage assay was performed using P. berghei luciferase expressing parasites. All assays were performed with technical quadruplicates and 3 biological replicates. Assays have a Z′ factor >0.7.

EC50 [nM]	Compound
99.5 ± 12.7	CCN1CCN(Cc2ccc(NC(=O)c3cc(F)cc(NC(=O)c4cncc(-c5cccs5)c4)c3)cc2C(F)(F)F)CC1 [LSW-03-054]
86.6 ± 2.92	CCN1CCN(Cc2ccc(NC(=O)c3cc(NC(=O)c4cncc(-c5cccs5)c4)cc(C(F)(F)F)c3)cc2C(F)(F)F)CC1 [LSW-03-055]
104 ± 8.67	CCN1CCN(Cc2ccc(NC(=O)c3cc(NC(=O)c4cncc(-c5cccs5)c4)cc(Cl)c3F)cc2C(F)(F)F)CC1 [LSW-03-059]
867 ± 68.3	CCN1CCN(Cc2ccc(NC(=O)c3cc(NC(=O)c4cncc(-c5cccs5)c4)ccc3F)cc2C(F)(F)F)CC1 [LSW-03-067]
108 ± 9.08	CCN1CCN(Cc2ccc(NC(=O)c3cc(Br)cc(NC(=O)c4cncc(-c5cccs5)c4)c3)cc2C(F)(F)F)CC1 [LSW-03-071]
330 ± 27.4	CCN1CCN(Cc2ccc(NC(=O)c3cc(Cl)cc(NC(=O)c4cncnc4)c3)cc2C(F)(F)F)CC1 [LSW-03-072]
43.8 ± 7.9	CCN1CCN(Cc2ccc(NC(=O)c3cc(Cl)cc(NC(=O)c4cncc(-c5ccc(C#N)cc5)c4)c3)cc2C(F)(F)F)CC1 [LSW-03-077]
732 ± 124	O=C(Nc1ccnc(N2CCOCC2)c1)c1cc(Cl)cc(NC(=O)c2cncc(-c3cccs3)c2)c1 [LSW-03-081]

More lines, now with the values behind:

Compound	EC50 [nM]
CCN1CCN(Cc2ccc(NC(=O)c3cc(Cl)cc(NC(=O)c4cncc(-c5ccco5)c4)c3)cc2C(F)(F)F)CC1 [LSW-03-006]	97.2 ± 23.3
CCN1CCN(Cc2ccc(NC(=O)c3cc(Cl)cc(NC(=O)c4cncc(C)c4)c3)cc2C(F)(F)F)CC1 [LSW-03-007]	164 ± 14.7
CCN1CCN(Cc2ccc(NC(=O)c3cc(Cl)cc(NC(=O)c4cccc(-c5cccs5)c4)c3)cc2C(F)(F)F)CC1 [LSW-03-015]	314 ± 17.4
CCN1CCN(Cc2ccc(NC(=O)c3cc(Cl)cc(NC(=O)c4cncc(-c5cccs5)c4)c3)cc2)CC1 [LSW-03-030]	99.6 ± 8.6
O=C(Nc1cccc(C(F)(F)F)c1)c1cc(Cl)cc(NC(=O)c2cncc(-c3cccs3)c2)c1 [LSW-03-033]	422 ± 36

Same assay, conditions: Plasmodium falciparum, DD2, 72 h, read-out: Antiplasmodial Dd2 EC50 (nM) ± SD

Compound	EC50 [nM]
CCN1CCN(Cc2ccc(NC(=O)c3cc(NC(=O)c4cncc(-c5cccs5)c4)cc(OC)c3)cc2C(F)(F)F)CC1 [TL5-134]	341
CCN1CCN(Cc2ccc(NC(=O)c3cncc(NC(=O)c4cncc(-c5cccs5)c4)c3)cc2C(F)(F)F)CC1 [TL5-139]	191
CCN1CCN(Cc2ccc(NC(=O)c3ccnc(NC(=O)c4cncc(-c5cccs5)c4)c3)cc2C(F)(F)F)CC1 [TL5-145]	391

Same assay, conditions: Plasmodium falciparum, DD2; 72 hour SYBR Green I; Table 2; read-out: Dd2 EC50 (nM) ± SD

Compound	EC50 [nM]
CCN1CCN(Cc2ccc(NC(=O)c3cc(Cl)cc(NC(=O)c4cccnc4)c3)cc2C(F)(F)F)CC1 [LSW-03-008]	407 ± 56
CCN1CCN(Cc2ccc(NC(=O)c3cc(Cl)cc(NCc4cncc(-c5cccs5)c4)c3)cc2C(F)(F)F)CC1 [LSW-03-014]	315 ± 18.7
CCN1CCN(Cc2ccc(NC(=O)c3cc(Cl)cc(NC(=O)N4CCN(C)CC4)c3)cc2C(F)(F)F)CC1 [LSW-03-080]	2120

These compounds were tested on P. berghei luc sporozoites (Pb-Luc) (assay: Prophylaxis assay, single IV dose 6 hours before Pb-Luc sporozoite infection). Conditions: single dose 15 mg/kg 6 hours before infection; after 22 days.
Format: in vivo, mice
Experimental: (§1) TL5-135 was dissolved or resuspended in a suspending vehicle consisting of 30% DMSO, 1% methylcellulose, 0.5% TWEEN-80, and 68.5% ultrapure water. GNF179 was resuspended in 30% DMSO, 30% PEG400, 5% TWEEN-80, 35% saline, and administered intravenously.
(§2) For prophylaxis assays, a single dose of […] was administrated 6 hours before infection. For therapeutic assays, in a 4-day's Peters test, 4 doses (each 15 mg/kg) were administrated 6, 18, 30, and 42 hours post infection.
(§3) The antimalarial activity was measured as a percent reduction in parasitemia from day one until day twelve post-infection.
Infection was initiated using 100,000 P. berghei luc sporozoites (Pb-Luc). The drugs were administered IV at 50 mg/kg, single dose 6 hours prior. I: infected, UI: uninfected.
(§4) Groups of 5 mice were infected with 100,000 Pb-Luc sporozoites by IV injection. Prophylactic (single dose of 50 mg/kg through IV injection, 6 hour before infection) and therapeutic (4-day Peters test, 4 doses of 15 mg/kg each time were administrated post-infection at 6, 18, 30, and 42 hours post infection (hpi) and the activity of the compounds was evaluated. See FIG. 8A. The parasitemia was estimated after flow cytometric enumeration of rodent malaria parasite Pb-Luc-infected red blood cells (RBS) stained with SYBR Green I, from day 3 until 20.
(§5) TL5-135 and GNF179 antimalarial compounds were tested against Pb-Luc sporozoites. Prophylactic activity (single dose of 15 mg/kg through an IV injection, 6 hours before infection) and therapeutic activity (4-day Peters test, 4 doses of 15 mg/kg each time was administrated at 6, 18, 30, and 42 hpi of the TL5-135 antimalarial compound was evaluated. As before, groups of five mice were infected with 100,000 Pb-Luc sporozoites by IV injection. The parasitemia was estimated after flow cytometric enumeration of rodent malaria parasite Pb-Luc-infected red blood cells (RBS) stained with SYBR Green I, from day 3 until day 20. See FIG. 8B.

Compound	Condition of mice after prophylactic treatment
CC1(C)c2nc(-c3ccc(F)cc3)c(Nc3ccc(Cl)cc3)n2CCN1C(=O)CN [GNF179, reference compound]	still healthy and alive

What follows are compounds tested on Pb-Luc sporozoites (assay: Therapeutic assay, 4-day Peters test against Pb-Luc sporozoites). Conditions: 4 doses of 15 mg/kg at 6, 18, 30, 42 hours post infection.
Format: in vivo, mice
Experimental: as §1, §2, §3
However, the mice treated with TL5-135 as a therapeutic had about 2.4% parasitemia after 12 days post-infection (all negative control mice died between days 11-13). The parasitemia on day 21 (21 days post-infection) for the group of mice was 35%.
as §4, §5

Compound	Condition of mice after therapeutic treatment
CC1(C)c2nc(-c3ccc(F)cc3)c(Nc3ccc(Cl)cc3)n2CCN1C(=O)CN [GNF179, reference compound]	healthy and without parasites

The compounds below were run on P. falciparum Dd2 (assay: Rate of killing assay). Conditions: 10×EC50, 12-hour exposure then wash off.
Format: cell-based
Experimental: Asynchronous P. falciparum Dd2 cultures were plated at 1% parasitemia, 4% hematocrit into a 24-well plate, incubated at 37° C. in 5% CO2. Wells were treated with 10×EC50 of compound for 12, 24, or 48 hours before the compound was removed. Every 24 hours thereafter for 4 days total, culture samples were washed in 0.5% BSA and stained with 1×SYBR Green I and 60 μM MitoTracker Deep Red FM for 20 minutes at 37° C. After another wash in 0.5% BSA, samples were resuspended in PBS and analyzed via flow cytometry with a CytoFLEX S™, with 100,000 events recorded per sample. For gating, the following controls were used: uninfected RBCs, untreated culture, DHA-treated culture, and untreated culture without MitoTracker stain. Viable parasite percentage was determined by finding the fraction of SYBR Green/MitoTracker double positive cells from the total events. Analysis was performed with FlowJo software Version 10.
Asynchronous cultures of P. falciparum Dd2 parasites were treated with 10×EC50 of the indicated compound for 12 hours prior to compound wash off. Flow cytometry with SYBR Green I (nuclear dye) and Mitotracker Deep Red FM (mitochondria staining) was done after compound wash-off every 24 hours after for […] (100,000 events/sample) to track parasitemia (data from 3 biological replicates±SEM).

Compound	Killing profile
C[C@H]1[C@@H](O)O[C@@H]2O[C@@]3(C)CC[C@H]4[C@H](C)CC[C@@H]1[C@@]24OO3 [dihydroartemisinin (DHA), dihydroartemisinin, reference compound]	pronounced irreversible killing
